Reference: patent publication US6737383B1, “Herbicidal oxadiazolidines” (priority 1999, dated 2004)

Columns and labels:
cocklebur = assay: Test B pre/postemergence cocklebur; assay type: in vivo, Xanthium strumarium
Procedure, shortened: (§1)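 Herbicidal effect was estimated by eye on a ten-point control scale after plants spent twelve to sixteen days in a greenhouse following soil or foliar treatment. Foliar sprays targeted plants at one to four leaves; all doses were formulated in a non-phytotoxic solvent with surfactant.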

wheat = assay: Test B pre/postemergence wheat; assay type: in vivo, Triticum aestivum
Procedure, shortened: as §1

wild oat = assay: Test B pre/postemergence wild oat; assay type: in vivo, Avena fatua
Procedure, shortened: as §1

velvetleaf = assay: Test B pre/postemergence velvetleaf; assay type: in vivo, Abutilon theophrasti
Procedure, shortened: as §1

soybean = assay: Test B pre/postemergence soybean; assay type: in vivo, Glycine max
Procedure, shortened: as §1

smallflower flatsedge = assay: Test B flood test smallflower flatsedge; assay type: in vivo, Cyperus difformis
Procedure, shortened: (§2)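 Flood test on plants grown to the 2-leaf stage; treated plants kept in greenhouse twelve to sixteen days, then visually rated against controls on a 0 (no effect) to 10 (complete control) scale.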

duck salad = assay: Test B flood test duck salad; assay type: in vivo, Heteranthera limosa
Procedure, shortened: as §2

sugar beet = assay: Test B pre/postemergence sugar beet; assay type: in vivo, Beta vulgaris
Procedure, shortened: as §1

corn = assay: Test B pre/postemergence corn; assay type: in vivo, Zea mays
Procedure, shortened: as §1

crabgrass = assay: Test B pre/postemergence crabgrass; assay type: in vivo, Digitaria sanguinalis
Procedure, shortened: as §1

pigweed = assay: Test B pre/postemergence pigweed; assay type: in vivo, Amaranthus retroflexus
Procedure, shortened: as §1

morningglory = assay: Test B pre/postemergence morningglory; assay type: in vivo, Ipomoea hederacea
Procedure, shortened: as §1

giant foxtail = assay: Test B pre/postemergence giant foxtail; assay type: in vivo, Setaria faberii
Procedure, shortened: as §1

purple nutsedge = assay: Test B pre/postemergence purple nutsedge; assay type: in vivo, Cyperus rotundus
Procedure, shortened: as §1

rape = assay: Test B pre/postemergence rape; assay type: in vivo, Brassica napus
Procedure, shortened: as §1

rice = assay: Test B flood test rice; assay type: in vivo, Oryza sativa
Procedure, shortened: as §2

[1] = Postemergence, Rate 62 g/ha, scale 0 to 10, 0 is no effect, 10 is complete control
[2] = Postemergence, Rate 125 g/ha, scale of 0 to 10 where 0 is no effect and 10 is complete control
[3] = Postemergence, Rate 250 g/ha, scale of 0 to 10, 0 is no effect, 10 is complete control
[4] = Postemergence, Rate 500 g/ha, scale of 0 to 10 where 0 is no effect and 10 is complete control
[5] = Preemergence, Rate 62 g/ha, scale 0 to 10 (0 no effect, 10 complete control)
[6] = Preemergence, Rate 125 g/ha, scale of 0 to 10 where 0 is no effect and 10 is complete control
[7] = Preemergence, Rate 250 g/ha, scale 0 to 10 (0 no effect, 10 complete control)
[8] = Preemergence, Rate 500 g/ha, scale of 0 to 10 where 0 is no effect and 10 is complete control
[9] = Rate 62 g/ha, flood test species, Pre-emergence, visual evaluation after twelve to sixteen days
[10] = Rate 125 g/ha, under heading Pre-emergence, flood test species, visual evaluation after twelve to sixteen days
[11] = Rate 250 g/ha, Pre-emergence (flood test species), scale 0 to 10, 0 is no effect, 10 is complete control
[12] = Rate 500 g/ha, Pre-emergence section of Table B, 0 to 10 scale (0 no effect, 10 complete control)

CCOC(Cn1c(=O)on(C(=O)N(c2ccc(Cl)cc2)C(C)C)c1=O)OCC [Compound 633]
Plant response rating, Cocklebur (cocklebur; [1]): 0
Plant response rating, Cocklebur (cocklebur; [2]): 0
Cocklebur plant response rating (cocklebur; [3]): 0
Plant response rating, Cocklebur (cocklebur; [4]): 0
Cocklebur plant response rating (cocklebur; [5]): 0
Cocklebur plant response rating (cocklebur; [6]): 0
Plant response rating, Cocklebur (cocklebur; [7]): 0
Plant response rating, Cocklebur (cocklebur; [8]): 0
Plant response rating, Wheat (wheat; [1]): 0
Plant response rating, Wheat (wheat; [2]): 0
Wheat plant response rating (wheat; [3]): 0
Wheat plant response rating (wheat; [5]): 0
Wheat plant response rating (wheat; [6]): 0
Plant response rating, Wheat (wheat; [7]): 0
Plant response rating, Wheat (wheat; [8]): 0
Plant response rating, Wild oats (wild oat; [1]): 0
Plant response rating, Wild oats (wild oat; [2]): 0
Wild oats plant response rating (wild oat; [3]): 0
Wild oats plant response rating (wild oat; [5]): 0
Wild oats plant response rating (wild oat; [6]): 2
Plant response rating, Wild oats (wild oat; [7]): 3
Plant response rating, Wild oats (wild oat; [8]): 5
Plant response rating, Velvetleaf (velvetleaf; [1]): 0
Plant response rating, Velvetleaf (velvetleaf; [2]): 0
Velvetleaf plant response rating (velvetleaf; [3]): 0
Velvetleaf plant response rating (velvetleaf; [5]): 0
Velvetleaf plant response rating (velvetleaf; [6]): 0
Plant response rating, Velvetleaf (velvetleaf; [7]): 0
Plant response rating, Velvetleaf (velvetleaf; [8]): 0
Plant response rating, Soybean (soybean; [1]): 2
Plant response rating, Soybean (soybean; [2]): 2
Soybean plant response rating (soybean; [3]): 2
Soybean plant response rating (soybean; [5]): 0
Soybean plant response rating (soybean; [6]): 0
Plant response rating, Soybean (soybean; [7]): 0
Plant response rating, Soybean (soybean; [8]): 0
Plant response rating, S. Flatsedge (0 to 10 scale, 0 is no effect, 10 is complete control) (smallflower flatsedge; [9]): 0
S. Flatsedge plant response rating (0 to 10 scale, 0 is no effect, 10 is complete control) (smallflower flatsedge; [10]): 0
S. Flatsedge plant response rating (smallflower flatsedge; [11]): 0
S. Flatsedge plant response rating (smallflower flatsedge; [12]): 0
Plant response rating, Ducksalad (0 to 10 scale, 0 is no effect, 10 is complete control) (duck salad; [9]): 0
Ducksalad plant response rating (0 to 10 scale, 0 is no effect, 10 is complete control) (duck salad; [10]): 0
Ducksalad plant response rating (duck salad; [11]): 0
Ducksalad plant response rating (duck salad; [12]): 0
Plant response rating, Sugarbeets (sugar beet; [1]): 0
Plant response rating, Sugarbeets (sugar beet; [2]): 0
Sugarbeets plant response rating (sugar beet; [3]): 0
Sugarbeets plant response rating (sugar beet; [5]): 0
Sugarbeets plant response rating (sugar beet; [6]): 0
Plant response rating, Sugarbeets (sugar beet; [7]): 0
Plant response rating, Sugarbeets (sugar beet; [8]): 0
Plant response rating, Corn (corn; [1]): 0
Plant response rating, Corn (corn; [2]): 0
Corn plant response rating (corn; [3]): 0
Plant response rating, Corn (corn; [4]): 0
Corn plant response rating (corn; [5]): 0
Corn plant response rating (corn; [6]): 0
Plant response rating, Corn (corn; [7]): 0
Plant response rating, Corn (corn; [8]): 2
Plant response rating, Crabgrass (crabgrass; [1]): 0
Plant response rating, Crabgrass (crabgrass; [2]): 0
Crabgrass plant response rating (crabgrass; [3]): 3
Plant response rating, Crabgrass (crabgrass; [4]): 9
Crabgrass plant response rating (crabgrass; [5]): 5
Crabgrass plant response rating (crabgrass; [6]): 8
Plant response rating, Crabgrass (crabgrass; [7]): 9
Plant response rating, Crabgrass (crabgrass; [8]): 9
Plant response rating, Redroot pigweed (pigweed; [1]): 0
Plant response rating, Redroot pigweed (pigweed; [2]): 0
Redroot pigweed plant response rating (pigweed; [3]): 1
Redroot pigweed plant response rating (pigweed; [5]): 0
Redroot pigweed plant response rating (pigweed; [6]): 0
Plant response rating, Redroot pigweed (pigweed; [7]): 2
Plant response rating, Redroot pigweed (pigweed; [8]): 4
Plant response rating, Morningglory (morningglory; [1]): 1
Plant response rating, Morningglory (morningglory; [2]): 2
Morningglory plant response rating (morningglory; [3]): 5
Plant response rating, Morningglory (morningglory; [4]): 5
Morningglory plant response rating (morningglory; [5]): 0
Morningglory plant response rating (morningglory; [6]): 0
Plant response rating, Morningglory (morningglory; [7]): 0
Plant response rating, Morningglory (morningglory; [8]): 0
Plant response rating, Giant foxtail (giant foxtail; [1]): 0
Plant response rating, Giant foxtail (giant foxtail; [2]): 0
Giant foxtail plant response rating (giant foxtail; [3]): 3
Plant response rating, Giant foxtail (giant foxtail; [4]): 8
Giant foxtail plant response rating (giant foxtail; [5]): 6
Giant foxtail plant response rating (giant foxtail; [6]): 9
Plant response rating, Giant foxtail (giant foxtail; [7]): 10
Plant response rating, Giant foxtail (giant foxtail; [8]): 10
Plant response rating, Nutsedge (purple nutsedge; [1]): 0
Plant response rating, Nutsedge (purple nutsedge; [2]): 0
Nutsedge plant response rating (purple nutsedge; [3]): 0
Plant response rating, Nutsedge (purple nutsedge; [4]): 0
Nutsedge plant response rating (purple nutsedge; [5]): 0
Nutsedge plant response rating (purple nutsedge; [6]): 0
Plant response rating, Nutsedge (purple nutsedge; [7]): 0
Plant response rating, Nutsedge (purple nutsedge; [8]): 0
Plant response rating, Rape (rape; [1]): 0
Plant response rating, Rape (rape; [2]): 0
Rape plant response rating (rape; [3]): 0
Plant response rating, Rape (rape; [4]): 0
Rape plant response rating (rape; [5]): 0
Rape plant response rating (rape; [6]): 0
Plant response rating, Rape (rape; [7]): 1
Plant response rating, Rape (rape; [8]): 4
Plant response rating, Rice (0 to 10 scale, 0 is no effect, 10 is complete control) (rice; [9]): 0
Rice plant response rating (0 to 10 scale, 0 is no effect, 10 is complete control) (rice; [10]): 0
Rice plant response rating (rice; [11]): 0
Rice plant response rating (rice; [12]): 0
